According to patent publication US20110151529A1, “METHODS AND PROCESSES FOR PRODUCING ORGANIC ACIDS” (THE OHIO STATE UNIVERSITY, priority 2008, published 2011):

Legend:
[1] = tested on: C. tyrobutyricum original culture (wild type); assay: Butyrate inhibition of cell growth, noncompetitive product inhibition model, original culture; format: cell-based, Clostridium tyrobutyricum
[2] = tested on: P. acidipropionici adapted ACK-Tet from FBB; conditions: at 20 g/L propionic acid
[3] = tested on: P. acidipropionici wild type; assay: Propionic acid inhibition of specific growth rate, free-cell culture, wild type; conditions: at 20 g/L propionic acid

Question: Which “butyrate concentration beyond which the culture lost its ability to grow” value [1] does the source give for `CCCC(=O)O` [butyric acid] here?
Answer: > 20 g/L

Question: For `CCC(=O)O` [propionic acid], which “specific growth rate retained relative to 0 g/L of propionic acid” value [2] is on record?
Answer: about 75%

Question: And the growth rate lost [3]?
Answer: more than 80%
